Measured values as given in US20250333410A1, “COMPOUND FOR INHIBITING OR DEGRADING BCL6 AND USE THEREOF IN PHARMACEUTICS” (XIZANG HAISCO PHARMACEUTICAL CO., LTD., priority 2022, published 2025).

Legend:
[1] = Pharmacokinetic test in mice; assay type: in vivo, ICR mice; conditions: i.g. 5 mg/kg; for AUC(0-t): male, ICR, mouse, po, mice plasma; for F: mice
Procedure: 3. Pharmacokinetic Test in Mice
1.1 Experimental animal: male ICR mice, 25-30 g, 6 mice/compound, purchased from Chengdu Ddossy Experimental Animals Co., Ltd.
1.2 Experimental design: on the day of the experiment, the ICR mice were randomly grouped according to their body weights. The animals were fasted but with water available for 12 to 14 h one day before the administration, and were fed 4 h after the administration.

[2] = biological target: T1, Bcl6 (Homo sapiens (Human), UniProt P41182); experiment: Bcl-6 protein degradation experiment in OCI-LY1 cells; assay type: cell-based; conditions: 24 hours
Procedure: 4. Bcl-6 Protein Degradation Experiment in OCI-LY1 Cells
(§1) OCI-LY1 cells purchased from DSMZ were placed in an IMDM complete medium (containing 10% fetal bovine serum, 100 U/mL penicillin, 100 μg/mL streptomycin and 50 µM mercaptoethanol) and cultured at 37° C. and 5% CO2. The cells in the logarithmic growth phase were collected, and the cell suspension was adjusted to an appropriate density with the culture medium and added to a 6-well cell culture plate at a volume of 1 mL/well. The compounds to be tested were prepared to 2-fold the final concentration, 1 mL of the compounds at different concentrations were added to administration wells, a medium containing 0.2% DMSO was added to control wells, and the plate was incubated at 37° C. for 24 hours. The cells were collected into a 1.5 mL centrifuge tube, 25 L of RIPA lysis buffer (containing 1× protease inhibitor cocktail) was added, and the cells were lysed on ice for 15 minutes and centrifuged at 12000 rpm/min at 4° C. for 10 minutes. The supernatant was collected and the protein content was determined using the BCA method. The protein sample to be tested was diluted to 0.8 mg/mL, Bcl6 was detected using a fully automated protein expression quantitative analyzer (ProteinSimple), and the internal reference protein was R-actin (both antibodies were from CST). The software (Compass for SW) of the fully automated protein expression quantitative analyzer was used to process the raw data and calculate the peak area and the Bcl6 expression rate relative to the control group. DC50 values were calculated using a four-parameter non-linear fitting model in Graphpad 8.3.0 software.

[3] = biological target: T1, Bcl6; experiment: Bcl-6 protein degradation experiment in Farage cells; assay type: cell-based; conditions: 24 hours
Procedure: 2. Bcl-6 Protein Degradation Experiment in Farage Cells
as §1, with “Farage cells” for “OCI-LY1 cells”, “from ATCC” for “from DSMZ”, “an RPMI-1640” for “an IMDM”, “U/mL penicillin and” for “U/mL penicillin,”, “μg/mL streptomycin)” for “μg/mL streptomycin and 50 µM mercaptoethanol)”, “25 μL” for “25 L”

[4] = biological target: hERG potassium ion channel (Homo sapiens (Human), UniProt Q12809); experiment: Test for hERG potassium ion channel (manual patch-clamp, CHO cells); assay type: cell-based; conditions: CHO cells stably expressing hERG, whole cell patch-clamp; read-out: IC50 of inhibitory effects on hERG potassium channel current
Text: 8. Test for hERG Potassium Ion Channel
Experimental platform: electrophysiological manual patch-clamp system
Cell line: Chinese hamster ovary (CHO) cell lines stably expressing hERG potassium ion channel
Experimental method: in CHO (Chinese Hamster Ovary) cells stably expressing hERG potassium channel, the whole cell patch-clamp technique was used to record hERG potassium channel current at room temperature. The glass microelectrode was made of a glass electrode blank (BF150-86-10, Sutter) by a puller. The tip resistance after filling the liquid in the electrode was about 2-5 MΩ. The glass microelectrode can be connected to the patch-clamp amplifier by inserting the glass microelectrode into an amplifier probe. The clamping voltage and data recording were controlled and recorded by the pClamp 10 software through a computer. The sampling frequency was 10 kHz, and the filtering frequency was 2 kHz. After the whole cell records were obtained, the cells were clamped at −80 mV, and the step voltage that induced the hERG potassium current (IhERG) was depolarized from −80 mV to +20 mV for 2 s, then repolarized to −50 mV, and returned to −80 mV after 1 s. This voltage stimulation was given every 10 s, and the administration process was started after the hERG potassium current was confirmed to be stable (at least 1 minute). The compound was administered for at least 1 minute at each test concentration, and at least 2 cells (n≥2) were tested at each concentration.
Data processing: data analysis processing was carried out by using pClamp 10, GraphPad Prism 5 and Excel software. The inhibition degree of hERG potassium current (peak value of hERG tail current induced at −50 mV) at different compound concentrations was calculated by the following formula: […]
where Inhibition % represents the percentage of inhibition of hERG potassium current by the compound, and I and Io represent the amplitude of hERG potassium current after and before the administration, respectively.
Compound IC50 was calculated using GraphPad Prism 5 software by fitting according to the following equation: […]
Among the equation, X represents the Log value of the tested concentration of the test sample, Y represents the inhibition percentage at the corresponding concentration, and Bottom and Top represent the minimum and maximum inhibition percentage, respectively.

hERG potassium ion channel, sequence (Q12809 whole entry): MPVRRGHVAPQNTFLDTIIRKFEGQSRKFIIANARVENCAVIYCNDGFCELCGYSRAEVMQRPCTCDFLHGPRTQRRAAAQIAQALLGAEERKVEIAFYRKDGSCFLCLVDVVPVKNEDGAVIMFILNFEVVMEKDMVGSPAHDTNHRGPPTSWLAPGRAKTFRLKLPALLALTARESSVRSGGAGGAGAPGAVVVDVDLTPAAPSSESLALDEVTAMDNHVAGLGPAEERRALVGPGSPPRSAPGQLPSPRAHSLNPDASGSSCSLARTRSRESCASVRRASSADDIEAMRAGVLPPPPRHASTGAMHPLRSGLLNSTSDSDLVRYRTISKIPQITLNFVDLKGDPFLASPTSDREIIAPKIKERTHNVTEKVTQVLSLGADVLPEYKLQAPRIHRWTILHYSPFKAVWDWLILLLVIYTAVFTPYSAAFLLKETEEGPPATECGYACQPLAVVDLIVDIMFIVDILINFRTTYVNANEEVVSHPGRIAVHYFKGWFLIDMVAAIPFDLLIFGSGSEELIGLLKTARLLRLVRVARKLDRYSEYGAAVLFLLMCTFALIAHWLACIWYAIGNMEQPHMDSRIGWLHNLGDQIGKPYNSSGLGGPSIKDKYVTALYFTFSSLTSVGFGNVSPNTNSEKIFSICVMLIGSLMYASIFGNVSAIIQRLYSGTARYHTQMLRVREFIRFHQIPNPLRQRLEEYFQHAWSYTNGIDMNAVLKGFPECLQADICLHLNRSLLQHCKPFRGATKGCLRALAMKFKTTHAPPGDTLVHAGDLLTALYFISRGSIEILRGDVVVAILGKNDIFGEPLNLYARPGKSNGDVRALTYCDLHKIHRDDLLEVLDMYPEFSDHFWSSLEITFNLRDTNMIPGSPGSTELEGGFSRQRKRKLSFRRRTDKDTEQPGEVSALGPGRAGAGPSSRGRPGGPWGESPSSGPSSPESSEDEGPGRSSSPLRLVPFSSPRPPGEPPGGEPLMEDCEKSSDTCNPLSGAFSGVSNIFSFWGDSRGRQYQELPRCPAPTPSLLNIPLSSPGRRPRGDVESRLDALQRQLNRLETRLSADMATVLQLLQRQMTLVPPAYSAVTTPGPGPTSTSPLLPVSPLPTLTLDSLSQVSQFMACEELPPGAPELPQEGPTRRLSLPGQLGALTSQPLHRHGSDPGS

Row | AUC(0-t) [1] [ng·h/mL] | DC50 [2] [nM] | F [1] [%] | DC50 [3] [nM] | SMILES | other results
1 | > 1000 | < 100 | – | – | CC(=O)COc1cc2cc(Nc3nc(N4CCC(N5CCN(c6ccc(C7CCC(=O)NC7=O)cc6)CC5)CC4)ncc3Cl)ccc2n(C)c1=O (stereo not drawn) [Compound 15] | –
2 | – | < 100 | – | – | CNC(=O)COc1cc2cc(Nc3nc(N4CCC(N5CCN(c6ccc(C7CCC(=O)NC7=O)cc6)CC5)CC4)ncc3Cl)ccc2n(C)c1=O (stereo not drawn) [Compound 16] | –
3 | – | < 100 | – | – | CC(=O)COc1cc2cc(Nc3nc(N4CCC(C5CCN(c6ccc(C7CCC(=O)NC7=O)cc6)CC5)CC4)ncc3Cl)ccc2n(C)c1=O (stereo not drawn) [Compound 18] | –
4 | < 100 | – | <5 | – | CNC(=O)COc1cc2cc(Nc3nc(N4CCN(CC5CCN(c6cccc7c6C(=O)N(C6CCC(=O)NC6=O)C7=O)CC5)CC4)ncc3Cl)ccc2n(C)c1=O (stereo not drawn) [Control compound 1, reference compound] | –
5 | > 1000 | – | – | < 10 | CC(=O)COc1cc2cc(Nc3nc(N4CCC(CN5CCN(c6ccc(C7CCC(=O)NC7=O)cc6)CC5)CC4)ncc3Cl)ccc2n(C)c1=O (stereo not drawn) [Trifluoroacetate of compound 13] | –
6 | > 1000 | – | – | < 10 | CNC(=O)COc1cc2cc(Nc3nc(N4CCC(CN5CCN(c6ccc(C7CCC(=O)NC7=O)cc6)CC5)CC4)ncc3Cl)ccc2n(C)c1=O (stereo not drawn) [Trifluoroacetate of compound 14] | –
7 | > 1000 | < 100 | >50 | < 10 | CNC(=O)COc1cc2cc(Nc3nc(N4CCN(CC5CCN(c6ccc(C7CCC(=O)NC7=O)c(F)c6)CC5)CC4)ncc3Cl)ccc2n(C)c1=O (stereo not drawn) [Trifluoroacetate of compound 24] | DC50 ([2]; listed as trifluoroacetate of compound 24): < 5 nM
8 | > 1000 | – | – | < 10 | CNC(=O)COc1cc2cc(Nc3nc(N4CCC(CN5CCN6c7cc(F)c(C8CCC(=O)NC8=O)cc7CC[C@@H]6C5)CC4)ncc3Cl)ccc2n(C(C)C)c1=O (stereo partly drawn) [Trifluoroacetate of compound 56] | –
9 | > 1000 | < 100 | – | < 10 | CNC(=O)COc1cc2cc(Nc3nc(N4CCC(CN5CCN6c7cc(F)c(C8CCC(=O)NC8=O)cc7CC[C@H]6C5)CC4)ncc3Cl)ccc2n(C(C)C)c1=O (stereo partly drawn) [Trifluoroacetate of compound 57] | DC50 ([2]; listed as trifluoroacetate of compound 57): < 5 nM
10 | > 1000 | < 100 | >50 | < 10 | CNC(=O)COc1cc2cc(Nc3nc(N4CCC(O[C@H]5C[C@H](N6CCN7c8cc(F)c(C9CCC(=O)NC9=O)cc8CC[C@H]7C6)C5)CC4)ncc3Cl)ccc2n(C(C)C)c1=O (stereo partly drawn) [Trifluoroacetate of compound 58] | DC50 ([2]; listed as trifluoroacetate of compound 58): < 5 nM
11 | > 1000 | – | >50 | < 10 | [2H]C([2H])([2H])n1c(=O)c(OCC(=O)NC)cc2cc(Nc3nc(N4CCC(CN5CCN6c7cc(F)c(C8CCC(=O)NC8=O)cc7CC[C@@H]6C5)CC4)ncc3Cl)ccc21 (stereo partly drawn) [Trifluoroacetate of compound 62] | –
12 | > 1000 | – | – | < 10 | [2H]C([2H])([2H])NC(=O)COc1cc2cc(Nc3nc(N4CCC(CN5CCN6c7cc(F)c(C8CCC(=O)NC8=O)cc7CC[C@@H]6C5)CC4)ncc3Cl)ccc2n(C([2H])([2H])[2H])c1=O (stereo partly drawn) [Trifluoroacetate of compound 63] | –
13 | > 1000 | – | – | < 10 | [2H]C([2H])([2H])NC(=O)COc1cc2cc(Nc3nc(N4CCC(CN5CCN6c7cc(F)c(C8CCC(=O)NC8=O)cc7CC[C@@H]6C5)CC4)ncc3Cl)ccc2n(C)c1=O (stereo partly drawn) [Trifluoroacetate of compound 64] | –
14 | > 1000 | – | – | < 10 | [2H]C([2H])([2H])n1c(=O)c(OCC(=O)NC)cc2cc(Nc3nc(N4CCC(CN5CCN6c7cc(F)c(C8CCC(=O)NC8=O)cc7CC[C@H]6C5)CC4)ncc3Cl)ccc21 (stereo partly drawn) [Trifluoroacetate of compound 65] | –
15 | > 1000 | – | >50 | < 10 | [2H]C([2H])([2H])NC(=O)COc1cc2cc(Nc3nc(N4CCC(CN5CCN6c7cc(F)c(C8CCC(=O)NC8=O)cc7CC[C@H]6C5)CC4)ncc3Cl)ccc2n(C([2H])([2H])[2H])c1=O (stereo partly drawn) [Trifluoroacetate of compound 66] | –
16 | > 1000 | – | >50 | < 10 | [2H]C([2H])([2H])NC(=O)COc1cc2cc(Nc3nc(N4CCC(CN5CCN6c7cc(F)c(C8CCC(=O)NC8=O)cc7CC[C@H]6C5)CC4)ncc3Cl)ccc2n(C)c1=O (stereo partly drawn) [Trifluoroacetate of compound 67] | IC50 [4]: > 40000 nM
17 | – | – | – | < 10 | CNC(=O)COc1cc2cc(Nc3nc(N4CCC(CN5CCn6c(nc7cc(F)c(C8CCC(=O)NC8=O)cc76)C5)CC4)ncc3Cl)ccc2n(C(C)C)c1=O (stereo not drawn) [Trifluoroacetate of compound 75] | IC50 [4]: > 40000 nM
18 | – | – | – | < 10 | CNC(=O)COc1cc2cc(Nc3nc(N4CCC(CN5CCn6c(cc7cc(C8CCC(=O)NC8=O)c(F)cc76)C5)CC4)ncc3Cl)ccc2n(C(C)C)c1=O (stereo not drawn) [Trifluoroacetate of compound 77] | IC50 [4]: > 40000 nM
19 | – | – | – | < 10 | CNC(=O)COc1cc2cc(Nc3nc(N4CCC(F)(CN5CCN6c7cc(F)c(C8CCC(=O)NC8=O)cc7CC[C@@H]6C5)CC4)ncc3Cl)ccc2n(C(C)C)c1=O (stereo partly drawn) [Trifluoroacetate of compound 98] | –
20 | – | – | – | < 10 | CNC(=O)COc1cc2cc(Nc3nc(N4CC[C@H](O[C@H]5C[C@H](N6CCN7c8cc(F)c(C9CCC(=O)NC9=O)cc8CC[C@H]7C6)C5)[C@@H](F)C4)ncc3Cl)ccc2n(C(C)C)c1=O (stereo partly drawn) [Trifluoroacetate of compound 109] | –
